The values below are quoted from earlier work in patent US20190160058A1, “METHODS OF TREATMENT WITH SELECTIVE CB2 RECEPTOR AGONISTS” (Arena Pharmaceuticals, Inc., priority 2016, published 2019).

The subject of one data set is EAE mouse model. Conditions: in vivo; cited from earlier work.
The test system of data set [1] is bone marrow-derived osteoblasts/stromal cells. Conditions: in vitro; cited from earlier work.
Data set [2] deals with ovariectomy-induced bone loss. Conditions: in vivo; cited from earlier work.
The test system of data set [3] is guinea pig vagus nerve preparations. The conditions noted are these: in vitro; cited from earlier work.
For data set [4], the system named is human vagus nerve preparations. The conditions noted are these: in vitro; cited from earlier work.
Another data set deals with conscious guinea-pigs. Conditions: given prior to exposure to citric acid; cited from earlier work.
A further data set concerns RPE cells. The conditions noted are these: cited from earlier work.
Data set [5] concerns LPS-induced bladder inflammation. The conditions noted are these: in vivo; cited from earlier work.
Data set [6] has as its system mouse model for allergic contact dermatitis. The conditions noted are these: subcutaneous injection; cited from earlier work.
The next data set has as its system ApoE knockout mice. The conditions noted are these: mouse, in vivo; cited from earlier work.
In data set [7] the test system is bovine nasal cartilage explants. The conditions noted are these: in vitro; cited from earlier work.
A further data set deals with mice. Conditions: cited from earlier work.
The test system of the next data set is guinea pigs. The conditions noted are these: cited from earlier work.

For `CCCCCCC(C)(C)c1cc(OC)c([C@@H]2C=C(CO)[C@@H]3C[C@H]2C3(C)C)c(OC)c1` [HU-308], the “cell recruitment, proliferation and axonal loss” value with EAE mouse model is “markedly reduces the recruitment of immature myeloid cells and T cells, microglial and infiltrating myeloid cell proliferation, and axonal loss”. Besides, the “osteoblast numbers and activity, osteoclast precursor proliferation” value in data set [1] was “enhances endocortical osteoblast numbers and activity while simultaneously inhibiting proliferation of osteoclast precursors”. The “bone loss and cortical thickness” value in [2] was “attenuates ovariectomy-induced bone loss and stimulates cortical thickness”.
For `CCCC(C)(C)c1ccc2c(c1)OC(C)(C)[C@@H]1CC=C(C)C[C@@H]21` [JWH133], the “capsaicin-, PGE2-, and hypertonic saline-induced depolarization” value was “reduces capsaicin-, PGE2-, and hypertonic saline-induced depolarization” in data set [3]; “reduces capsaicin-, PGE2-, and hypertonic saline-induced depolarization” in [4]. The cough result in the data set with conscious guinea-pigs was “significantly reduces cough”.
With `CCCn1c(C)c(C(=O)c2cccc3ccccc23)c2ccccc21` [JWHO15], the “protection from oxidative damage” value in the data set with RPE cells is given as “provides comparable protection”. The LPS-induced bladder inflammation result in data set [5] is recorded as “antagonize LPS-induced bladder inflammation”.
With `CCCCCc1cc(O)c2c(c1)OC(C)(C)[C@@H]1CCC(C)=C[C@@H]21` [THC], in the data set on EAE mouse model, the “severity of clinical disease” value is “significantly inhibits the severity of clinical disease”. In addition, the “cutaneous inflammation and pruritus (itch)” value in [6] is “reduces cutaneous inflammation and the pruritus (itch)”. Also, the progression of atherosclerosis result with ApoE knockout mice is reported as “reduces the progression of atherosclerosis”.
In the case of `Cc1c(C(=O)c2cccc3ccccc23)c2cccc3c2n1[C@H](CN1CCOCC1)CO3` [WIN 55212-2], the “leukocyte rolling and adhesion in the brain” value in the data set on EAE mouse model was “significantly inhibits leukocyte rolling and adhesion in the brain”. The “IL-1alpha-stimulated proteoglycan and collagen degradation” value in data set [7] is on record as “significantly inhibit”. For the same molecule, the “number of capsaicin-induced coughs” value with mice is given as “dose-dependent inhibition”.
On to `CCCCC/C=C\C/C=C\C/C=C\C/C=C\CCCC(=O)NCCO` [anandamide], for which the “number of capsaicin-induced coughs” value in the data set with guinea pigs is recorded as “dose-dependent inhibition”.
